{
  "source": "ChEMBL document CHEMBL1201862",
  "about": "“PubChem BioAssay data set” (2004)",
  "key": {"[1]": {"test": "Dd2 parasite growth inhibition in erythrocytes – SYBR Green, dry powder samples, set 9, dose response (AID 1159568)", "format": "functional, cell-based"}, "NADPH oxidase 1": {"molecular_target": "NADPH oxidase 1 (Homo sapiens, UniProt Q9Y5S8)", "sequence (Q9Y5S8 whole entry)": "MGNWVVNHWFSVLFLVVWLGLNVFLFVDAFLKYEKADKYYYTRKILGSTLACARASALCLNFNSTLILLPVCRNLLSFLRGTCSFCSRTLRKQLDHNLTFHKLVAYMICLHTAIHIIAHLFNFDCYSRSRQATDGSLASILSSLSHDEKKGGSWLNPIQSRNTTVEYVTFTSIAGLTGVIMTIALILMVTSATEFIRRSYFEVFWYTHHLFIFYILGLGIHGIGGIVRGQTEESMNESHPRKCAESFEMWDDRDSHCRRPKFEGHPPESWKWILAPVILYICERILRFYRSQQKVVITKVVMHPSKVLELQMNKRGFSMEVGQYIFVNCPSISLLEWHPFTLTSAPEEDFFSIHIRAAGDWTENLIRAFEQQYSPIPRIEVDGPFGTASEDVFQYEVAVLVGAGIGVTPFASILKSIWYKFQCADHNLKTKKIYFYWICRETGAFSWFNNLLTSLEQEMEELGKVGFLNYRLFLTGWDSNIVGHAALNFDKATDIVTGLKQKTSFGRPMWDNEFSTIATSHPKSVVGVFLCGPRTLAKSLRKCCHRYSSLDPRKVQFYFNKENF", "test": "Late-stage luminescence-based cell-based dose response assay to identify inhibitors of NADPH oxidase 1 (NOX1): Purchased analogs 2.", "format": "functional"}, "[2]": {"test": "M. tuberculosis growth inhibition, HTS (AID 449762)", "format": "functional"}, "[3]": {"test": "microbe, parasite or virus in culture", "format": "functional", "details": "Mycobacterium tuberculosis"}, "[4]": {"molecular_target": "T1, Mannose-6-phosphate isomerase (Homo sapiens, UniProt P34949)", "T1 sequence (P34949 whole entry)": "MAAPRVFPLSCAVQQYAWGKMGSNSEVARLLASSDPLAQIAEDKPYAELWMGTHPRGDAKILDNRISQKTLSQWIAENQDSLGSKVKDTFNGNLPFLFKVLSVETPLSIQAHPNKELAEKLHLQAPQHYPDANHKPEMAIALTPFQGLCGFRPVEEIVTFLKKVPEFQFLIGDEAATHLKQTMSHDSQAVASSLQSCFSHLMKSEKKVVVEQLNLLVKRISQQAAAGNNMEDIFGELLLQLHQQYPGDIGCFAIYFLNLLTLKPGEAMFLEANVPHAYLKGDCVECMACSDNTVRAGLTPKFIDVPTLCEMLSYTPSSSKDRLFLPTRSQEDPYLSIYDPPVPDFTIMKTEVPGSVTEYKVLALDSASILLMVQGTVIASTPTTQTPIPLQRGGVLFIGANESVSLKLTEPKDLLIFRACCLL", "test": "MPI inhibition at elevated mannose 6-phosphate – biochemical, fluorescence intensity, high mannose 6-phosphate, primary screen (AID 1220)"}, "Heat shock protein HSP90": {"molecular_target": "Heat shock protein HSP90 (Homo sapiens, UniProt P07900+P08238)", "test": "Hsp90 blockade concentration-response – dose response (AID 712)", "format": "functional"}, "[5]": {"molecular_target": "T2, Tyrosine-protein phosphatase non-receptor type 7 (Homo sapiens, UniProt P35236)", "T2 sequence (P35236 whole entry)": "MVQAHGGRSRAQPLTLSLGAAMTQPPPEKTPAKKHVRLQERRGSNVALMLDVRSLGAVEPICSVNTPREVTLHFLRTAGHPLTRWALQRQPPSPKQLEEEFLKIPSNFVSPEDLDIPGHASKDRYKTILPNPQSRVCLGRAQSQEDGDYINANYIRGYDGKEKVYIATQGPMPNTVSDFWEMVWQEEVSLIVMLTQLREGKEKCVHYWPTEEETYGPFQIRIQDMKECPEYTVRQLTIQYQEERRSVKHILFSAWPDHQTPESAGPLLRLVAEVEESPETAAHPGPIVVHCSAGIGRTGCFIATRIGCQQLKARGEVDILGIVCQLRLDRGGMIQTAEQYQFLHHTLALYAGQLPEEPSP", "test": "redox-active compounds inhibiting HePTP phosphatase – biochemical, fluorescence, mechanism study (AID 2068)", "format": "functional"}, "Ephrin type-A receptor 4": {"molecular_target": "Ephrin type-A receptor 4 (Mus musculus, UniProt Q03137)", "sequence (Q03137 whole entry)": "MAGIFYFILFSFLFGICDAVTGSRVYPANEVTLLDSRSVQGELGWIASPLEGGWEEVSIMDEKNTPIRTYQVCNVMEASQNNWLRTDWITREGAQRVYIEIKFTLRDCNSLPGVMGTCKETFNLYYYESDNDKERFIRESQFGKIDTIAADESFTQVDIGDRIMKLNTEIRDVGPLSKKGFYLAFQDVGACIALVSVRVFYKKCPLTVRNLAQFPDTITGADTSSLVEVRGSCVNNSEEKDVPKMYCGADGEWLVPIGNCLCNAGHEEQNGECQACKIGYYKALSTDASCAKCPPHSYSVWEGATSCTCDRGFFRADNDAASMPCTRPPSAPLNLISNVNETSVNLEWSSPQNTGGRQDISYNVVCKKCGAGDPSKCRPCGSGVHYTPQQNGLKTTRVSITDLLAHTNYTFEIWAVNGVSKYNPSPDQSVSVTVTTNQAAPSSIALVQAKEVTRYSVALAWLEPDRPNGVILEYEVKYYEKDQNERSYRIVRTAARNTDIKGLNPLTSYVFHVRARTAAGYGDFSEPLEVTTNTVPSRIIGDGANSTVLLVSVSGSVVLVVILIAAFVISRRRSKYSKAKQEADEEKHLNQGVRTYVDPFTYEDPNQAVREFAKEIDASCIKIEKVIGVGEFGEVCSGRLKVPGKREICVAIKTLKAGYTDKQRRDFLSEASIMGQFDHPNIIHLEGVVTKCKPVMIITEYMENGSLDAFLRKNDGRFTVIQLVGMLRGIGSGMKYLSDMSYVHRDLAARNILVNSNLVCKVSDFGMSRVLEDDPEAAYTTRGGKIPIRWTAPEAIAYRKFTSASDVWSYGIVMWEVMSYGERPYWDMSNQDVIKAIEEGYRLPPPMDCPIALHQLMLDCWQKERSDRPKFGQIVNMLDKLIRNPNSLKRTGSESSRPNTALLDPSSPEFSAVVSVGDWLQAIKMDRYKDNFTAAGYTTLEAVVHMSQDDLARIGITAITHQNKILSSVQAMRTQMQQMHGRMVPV", "test": "EphA4 ligand-binding antagonists – biochemical, colorimetric, mouse EphA4, primary screen (AID 689)", "format": "functional"}, "Estrogen receptor beta": {"molecular_target": "Estrogen receptor beta (Homo sapiens, UniProt Q92731)", "sequence (Q92731 whole entry)": "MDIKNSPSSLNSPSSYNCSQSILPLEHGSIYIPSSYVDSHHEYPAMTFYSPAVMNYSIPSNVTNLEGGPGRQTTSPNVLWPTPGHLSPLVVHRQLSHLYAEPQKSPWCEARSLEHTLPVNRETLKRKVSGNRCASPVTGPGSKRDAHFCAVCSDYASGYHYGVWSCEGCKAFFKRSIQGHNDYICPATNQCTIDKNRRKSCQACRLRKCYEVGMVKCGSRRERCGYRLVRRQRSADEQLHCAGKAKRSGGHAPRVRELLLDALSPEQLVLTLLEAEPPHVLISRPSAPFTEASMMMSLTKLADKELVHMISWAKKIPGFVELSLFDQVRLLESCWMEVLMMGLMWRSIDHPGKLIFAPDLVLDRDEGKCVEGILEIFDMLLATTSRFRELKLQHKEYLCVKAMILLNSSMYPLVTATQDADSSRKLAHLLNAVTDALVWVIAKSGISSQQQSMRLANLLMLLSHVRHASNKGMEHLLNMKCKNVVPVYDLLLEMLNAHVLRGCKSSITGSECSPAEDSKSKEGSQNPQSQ", "test": "blockers of SRC-3 recruitment to ERβ – biochemical, ELISA, streptavidin-HRP readout, orthogonal assay, confirmation (AID 1060)"}, "[6]": {"molecular_target": "Induced myeloid leukemia cell differentiation protein Mcl-1 (Homo sapiens, UniProt Q07820)", "sequence (Q07820 whole entry)": "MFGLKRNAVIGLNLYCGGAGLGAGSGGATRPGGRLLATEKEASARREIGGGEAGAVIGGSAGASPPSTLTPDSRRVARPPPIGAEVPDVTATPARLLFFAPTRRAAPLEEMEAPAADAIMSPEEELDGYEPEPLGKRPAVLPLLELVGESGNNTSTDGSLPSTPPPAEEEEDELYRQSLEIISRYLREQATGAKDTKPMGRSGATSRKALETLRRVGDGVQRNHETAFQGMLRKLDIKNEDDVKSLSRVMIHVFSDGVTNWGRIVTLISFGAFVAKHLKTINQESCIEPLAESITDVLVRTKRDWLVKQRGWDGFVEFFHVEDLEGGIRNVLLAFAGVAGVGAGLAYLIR", "format": "functional"}, "[7]": {"test": "non-specific 3'UTR reporter inhibition in Clone20-Shn3RL – cell-based, Renilla luciferase, cherry-picked, counter-screen for Shn3 inhibitor project, dose response (AID 624133)", "format": "functional"}, "[8]": {"test": "reduction of Shn3 3'UTR-driven luciferase in osteoblasts – cell-based, Clone20 osteoblasts, firefly luciferase, cherry-picked, dose response (AID 624132)", "format": "functional"}, "[9]": {"molecular_target": "E3 ubiquitin-protein ligase Mdm2 (Homo sapiens, UniProt Q00987)", "sequence (Q00987 whole entry)": "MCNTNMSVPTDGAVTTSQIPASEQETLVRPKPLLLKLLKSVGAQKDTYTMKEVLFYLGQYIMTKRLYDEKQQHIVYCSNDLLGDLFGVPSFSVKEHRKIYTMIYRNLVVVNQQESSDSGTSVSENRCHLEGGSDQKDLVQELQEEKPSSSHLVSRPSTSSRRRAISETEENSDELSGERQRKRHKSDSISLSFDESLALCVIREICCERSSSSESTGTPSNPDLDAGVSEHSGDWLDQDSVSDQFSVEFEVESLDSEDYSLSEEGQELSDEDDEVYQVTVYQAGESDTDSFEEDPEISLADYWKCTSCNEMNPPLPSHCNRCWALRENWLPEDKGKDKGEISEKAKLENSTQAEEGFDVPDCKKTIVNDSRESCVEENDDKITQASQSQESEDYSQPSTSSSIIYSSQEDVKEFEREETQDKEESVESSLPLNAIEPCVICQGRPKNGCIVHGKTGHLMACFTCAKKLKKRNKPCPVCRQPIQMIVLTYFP", "test": "MDM2-luc reporter signal enhancers, multi-concentration potency testing, MDM2 ubiquitin-protein ligase inhibitor program, whole-cell format, luminescence detection, 384-well microplate (AID 1394);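 further: MDM2 E3 inhibitors raise luminescence so EC50 is for signal enhancement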", "format": "functional"}, "[10]": {"test": "viability loss in HEK293T cells – cell-based, cherry-picks, cytotoxicity control for HIV Vif inhibitor project, dose response (AID 652208)", "format": "functional"}, "cells": {"test": "cells", "format": "functional, cell-based", "details": "INS-1E"}, "[11]": {"test": "IC50 of insulin release inhibition, rat insulinoma INS-1E line, 5 mM glucose, cell-based (AID 1117331)", "format": "functional"}, "[12]": {"test": "inhibitors acting on PAX2 in cells – cell-based, plate reader, dry powder samples, selectivity assay for PAX8 inhibitor project, dose response (AID 743048);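 further: HEK293 cells carrying a WT1 promoter luciferase reporter driven by expressed Pax2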", "format": "functional"}, "Paired box protein Pax-8": {"molecular_target": "Paired box protein Pax-8 (Homo sapiens, UniProt Q06710)", "sequence (Q06710 whole entry)": "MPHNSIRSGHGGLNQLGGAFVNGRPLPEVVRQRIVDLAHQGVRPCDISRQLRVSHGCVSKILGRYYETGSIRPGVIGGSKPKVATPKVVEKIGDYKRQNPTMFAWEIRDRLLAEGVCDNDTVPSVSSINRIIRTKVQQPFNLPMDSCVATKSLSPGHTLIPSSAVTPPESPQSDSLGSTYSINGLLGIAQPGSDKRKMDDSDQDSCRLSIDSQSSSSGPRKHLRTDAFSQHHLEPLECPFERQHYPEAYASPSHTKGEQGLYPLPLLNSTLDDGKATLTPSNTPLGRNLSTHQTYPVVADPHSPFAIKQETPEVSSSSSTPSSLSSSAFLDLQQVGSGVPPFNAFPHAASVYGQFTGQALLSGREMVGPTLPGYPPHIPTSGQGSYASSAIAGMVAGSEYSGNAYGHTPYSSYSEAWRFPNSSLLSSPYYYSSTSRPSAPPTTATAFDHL", "test": "PAX8 transcriptional activity inhibition in RMG-I – RMG-I cells, luciferase, cherry-pick, dose response (AID 687027);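 further: luciferase reporter driven by Pax8 target thyroperoxidase promoter measured by SteadyGlo luminescence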", "format": "functional, cell-based"}, "[13]": {"test": "PAX8-dependent cell viability loss – plate reader, dry powder, dose response (AID 743049)", "format": "functional, cell-based"}, "[14]": {"test": "PAX5 cellular inhibition readout – cell-based, plate reader, dry powder samples, selectivity assay for PAX8 inhibitor project, dose response (AID 743047);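 further: HEK293 cells carrying a Pax5 driven CD19 promoter luciferase reporter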", "format": "functional"}},
  "note": "Active and inactive are the calls of the source.",
  "data": [
    {"smiles": "O=C(Nc1ccccc1F)N1CCCCN2[C@H](CO)[C@@H](c3ccc(/C=C/c4ccccc4)cc3)[C@@H]2C1", "values": [
      {"measurement": "AC50", "setting": "[1]", "result": "6.45 µM (active)"}
    ]},
    {"smiles": "CN(CCO)c1ccc(/C=N/Nc2c(F)c(F)nc(F)c2F)cc1", "values": [
      {"measurement": "IC50", "setting": "NADPH oxidase 1", "result": "1.11 µM (active)"}
    ]},
    {"smiles": "O=C(CSc1n[nH]c(-c2ccccc2)n1)Nc1ccc(Br)cn1", "values": [
      {"measurement": "IC50", "setting": "[2]", "result": "> 100 µM (active)"},
      {"measurement": "CC50", "setting": "[3]", "result": "> 40 µM (active)"}
    ]},
    {"smiles": "CCOC(=O)c1c(C)oc2c1c(/C=N/CC1CCCO1)c(O)c1ccccc12", "note": "(stereo not given)", "values": [
      {"measurement": "IC50", "setting": "[4]", "result": "> 50 µM (not active)"},
      {"measurement": "IC50", "setting": "Heat shock protein HSP90", "result": 13.307, "unit": "µM"}
    ]},
    {"smiles": "O=C(NCc1ccccc1)c1ccc2nc(-c3ccco3)c(-c3ccco3)nc2c1", "values": [
      {"measurement": "IC50", "setting": "[5]", "result": "3.99 µM (active)"},
      {"measurement": "IC50", "setting": "Ephrin type-A receptor 4", "result": "11.1 µM (active)"},
      {"measurement": "IC50", "setting": "Estrogen receptor beta", "result": "< 0.023 µM (not active)"},
      {"measurement": "IC50", "setting": "[6]", "result": "4.26 µM (active)"}
    ]},
    {"smiles": "COc1ccc(-c2cc(C(F)(F)F)nc(S(=O)(=O)CCCC(=O)Nc3cccnc3Cl)n2)cc1OC", "values": [
      {"measurement": "AC50", "setting": "[7]", "result": "13.8 µM (active)"},
      {"measurement": "AC50", "setting": "[8]", "result": "3.17 µM (active)"},
      {"measurement": "EC50", "setting": "[9]", "result": "25 µM (not active)"},
      {"measurement": "AC50", "setting": "[10]", "result": "11.6 µM (active)"}
    ]},
    {"smiles": "Cc1ccc(S(=O)(=O)NC(=O)NN2CCCCCC2)cc1", "note": "[TOLAZAMIDE]", "values": [
      {"measurement": "IC50", "setting": "cells", "result": "> 33.3 µM (inactive)"},
      {"measurement": "IC50", "setting": "[11]", "result": "6.98 µM (inactive)"}
    ]},
    {"smiles": "C[C@H](CO)N1C[C@H](C)[C@@H](CN(C)S(=O)(=O)c2ccc(-c3ccccc3)cc2)OCc2cn(nn2)CCCC1=O", "values": [
      {"measurement": "AC50", "setting": "[12]", "result": "> 70 µM (inactive)"},
      {"measurement": "AC50", "setting": "Paired box protein Pax-8", "result": "3.99 µM (active)"},
      {"measurement": "AC50", "setting": "[13]", "result": "> 70 µM (inactive)"},
      {"measurement": "AC50", "setting": "[14]", "result": "> 70 µM (inactive)"}
    ]}
  ]
}
